# Measured values published in patent US9309238B2, “Imidazo [1,2-a]pyridine compounds, synthesis thereof, and methods of using same” (priority 2009, dated 2016).
# Several values for one entry are separate records, joined by “and”; a condition that tells them apart may be missing. Identical values can stand only once. Like-named read-outs stand apart in the source and are kept apart here.
# Columns and labels:
# M. chelonae = test: NTM activity, M. chelonae; format: cell-based
# M. kansasii = test: NTM activity, M. kansasii; format: cell-based
# M. bovis BCG = test: NTM activity, M. bovis BCG; format: cell-based
# M. marinum = test: NTM activity, M. marinum; format: cell-based
# M. avium = test: NTM activity, M. avium; format: cell-based
# H37Rv TB [1] = settings: current TB clinical candidates; cited from earlier work
# MDR-TB [2] = settings: current TB clinical candidates; cited from earlier work
# TB = settings: strain not stated; cited from earlier work
# MDR-TB [3] = test: MIC against MDR-TB (Table 1); format: cell-based; settings: Mycobacterium tuberculosis
# [4] = system: panel of diverse organisms (Gram-positive and Gram-negative strains, yeast, fungi, cancer cell lines, VERO cell line); test: screen against a panel of diverse control organisms and cell lines; format: cell-based; settings: B. subtilis, S. aureus, MRSA, VRE E. faecalis, E. coli, P. aeruginosa, S. salmonicolor, C. albicans, P. notatum, Huvec, K-562, HeLa, PC-3, MCF-7, VERO
# Source text: In embodiments, compounds ND-8448, ND-8451 and ND-8454 were all screened against a panel of diverse organisms which included four Gram-positive strains (Bacillus subtilis, Staphylococcus aureus, MRSA Staphylococcus aureus, VRE Enterococcus Faecalis), two Gram-negative strains (E. coli, Pseudomonas aeruginosa), a yeast (Sporobolomyces salmonicolor) and fungi (Candida albicans and Penicillium notatum), as well as five cancer cell lines (Huvec, K-562, HeLa, PC-3 and MCF-7) and the VERO cell line to check for mammalian toxicity.
# M. smegmatis = test: cross screen against M. smegmatis; format: cell-based; settings: Mycolicibacterium smegmatis
# HeLa cells = test: toxicity to HeLa cells; format: cell-based
# H37Rv TB [5] = test: in vitro activity against H37Rv TB (MIC); format: cell-based; settings: Mycobacterium tuberculosis
# [6] = system: VERO cells (African Green Monkey epithelial kidney cells); test: VERO cellular toxicity assay; format: cell-based; settings: Chlorocebus sabaeus
# [7] = Mycobacterium tuberculosis variant bovis BCG, BCG
Structure (SMILES),MIC90 (M. chelonae) [µM],MIC90 (M. kansasii; M. kansasii) [µM],MIC90 (M. bovis BCG; M. bovis BCG) [µM],MIC90 (M. marinum) [µM],MIC90 (M. avium) [µM],also measured
"CC[C@@H](CO)NCCN[C@@H](CC)CO [EMB, reference compound]",>2000,<7.813,<7.813,965.56,>2000,
COc1c(N2CCNC(C)C2)c(F)cc2c(=O)c(C(=O)O)cn(C3CC3)c12 (stereo not shown) [Gatifloxacin],,,,,,MIC (H37Rv TB [1]): MIC = 0.03-1.56 μg/mL H37Rv TB; MIC (MDR-TB [2]): MIC = 3.12 μg/mL MDR-TB
"NNC(=O)c1ccncc1 [INH, Isoniazid, reference compound]",,,,,,MIC90 (M. chelonae; Mycobacteroides chelonae): > 500 µM; MIC90 (M. kansasii; Mycobacterium kansasii): 5.82 µM; MIC90 (M. bovis BCG; [7]): < 1.95 µM; MIC90 (M. marinum; Mycobacterium marinum): > 500 µM; MIC90 (M. avium; Mycobacterium avium): > 500 µM
Cc1c(CN2CCN(c3cccc(C(F)(F)F)c3)CC2)cc(-c2ccccc2)n1NC(=O)c1ccncc1 [LL-3858],,,,,,MIC (TB): MIC = 0.06 μg/mL
"Cc1ccn2c(C(=O)NCc3ccccc3)c(C)nc2c1 [ND-8454, N-benzyl-2,7-dimethylimidazo[1,2-a]pyridine-3-carboxamide]",,,,,,MIC90 (M. chelonae; Mycobacteroides chelonae): > 50 µM; MIC (MDR-TB [3]): 0.02 µg/mL; activity against control organisms [4]: inactive; MIC90 (M. smegmatis): ≥ 5 µg/mL; MIC90 (M. kansasii; Mycobacterium kansasii): 1.32 µM; MIC90 (M. bovis BCG; [7]): 0.33 µM; toxicity to HeLa cells (HeLa cells): > 50 µM; MIC (H37Rv TB [5]): 0.08 µg/mL and 0.286 µM; MIC90 (M. marinum; Mycobacterium marinum): > 50 µM; MIC90 (M. avium; Mycobacterium avium): 1.32 µM; IC50 [6]: > 128 µM
Cc1ccn2c(C(=O)NCc3cccc(F)c3)c(C)nc2c1 [ND-9361],,,,,,MIC90 (M. smegmatis): ≥ 5 µg/mL
Cc1ccn2c(C(=O)NCc3ccc(Oc4ccc(F)cc4)cc3)c(C)nc2c1 [ND-9758],6.07,<0.195,<0.195,5.21,<0.195,
Cc1ccn2c(C(=O)NCc3cccc(OC(C)C)c3)c(C)nc2c1 [ND-9872],>50,0.71,<0.195,>50,0.71,
Cc1ccn2c(C(=O)NCc3ncc(C(F)(F)F)cc3Cl)c(C)nc2c1 [ND-9902],>50,4.42,0.75,>50,4.42,
Cc1ccc2nc(C)c(C(=O)NCc3ccc(S(C)(=O)=O)cc3)n2c1 [ND-9965],>50,6.03,0.23,>50,6.03,
C[C@]1(COc2ccc(N3CCC(Oc4ccc(OC(F)(F)F)cc4)CC3)cc2)Cn2cc([N+](=O)[O-])nc2O1 [OPC-67683],,,,,,MIC (H37Rv TB [1]): MIC of 0.006-0.024 μg/mL; MIC (MDR-TB [2]): MIC of 0.006-0.024 μg/mL
COc1nc2ccc(Br)cc2cc1[C@@H](c1ccccc1)[C@@](O)(CCN(C)C)c1cccc2ccccc12 [TMC207],,,,,,MIC (H37Rv TB [1]): MIC = 0.06 μg/mL vs. H37Rv and MDR-TB; MIC (MDR-TB [2]): MIC = 0.06 μg/mL vs. H37Rv and MDR-TB
